Experiments:
4T1 breast tumor cells [1] = experiment: Boyden-chamber cell migration assay, 4T1; type: cell-based
Procedure: (§1) Since fascin is critical for tumor cell migration, inhibitors of fascin should block tumor cell migration. Representative compounds were selected from the above-identified fascin inhibitors to test their abilities on inhibition of tumor cell migration (See Table 2). […] The cell lines used are listed below.
(§2) Exemplifying procedure: MDA-MB-231 cells (5×10^4) or 4T1 Cells (1×10^5) suspended in 100 μL starvation medium were added to the upper chamber of an insert (6.5 mm diameter, 8 μm pore size; Becton Dickson), and the insert was placed in a 24-well plate containing 700 μL starvation medium with or without 10% FBS. […] Migration assays were performed for 6 h and cells were fixed with 3.7% formaldehyde. Cells were stained with crystal violet staining solution, and cells on the upper side of the insert were removed with a cotton swab. Three randomly selected fields (×10 objectives) on the lower side of the insert were photographed, and the migrated cells were counted. Migration was expressed as average number of migrated cells in a field.

4T1 breast tumor cells [2] = experiment: Tumor metastasis in mouse models (lung metastasis, 6-thioguanine clonogenic assay); type: in vivo, Balb/c mice; details: 4T1 cells in mammary fat-pad, n=5, P<0.01
Procedure: Lung metastasis was measured by the 6-thioguanine clonogenic assay. […] Results are mean±SD (n=5). *, P<0.01.
Tumor cell migration is essential for tumor metastasis. […] Tumor cells (4T1 breast tumor cells) were injected into the mammary fat-pad of mice. The metastasis of these breast tumor cells from the mammary gland to the lung was monitored by the clonogenic assay.
Balb/c mice were purchased from Charles River. All animal procedures were approved by the Animal Care and Use Committees of the Weill Cornell Medical College and performed in accordance with institutional polices. For xenograft tumor metastasis studies, 5×10^5 4T1 cells were suspended in 100 μL PBS and injected subcutaneously into the mammary glands of 6-8 week old female Balb/c mice. Tumor incidence was monitored for 21 days after injection. Tumor size was measured three times a week, and the volume was calculated using the formula length×width^2×0.5. Compound treatment was initiated 7 days after tumor implantation; animals were administered daily with indicated dose for 2 weeks. On day 28, the mice were sacrificed. Numbers of metastatic 4T1 cells in lungs were determined by the clonogenic assay. […] Data are expressed as mean±S.D. and analyzed by Student's t test with significance defined as p<0.05.

[3] = tested on: PC-3 prostate tumor cells; experiment: Boyden-chamber cell migration assay, PC-3; type: cell-based
Procedure: (§3) Since fascin is critical for tumor cell migration, inhibitors of fascin should block tumor cell migration. Representative compounds were selected from the above-identified fascin inhibitors to test their abilities on inhibition of tumor cell migration (See Table 2). […] Therefore, tumor cells with fascin expression are likely sensitive to these fascin inhibitors. The cell lines used are listed below.
(§4) Exemplifying procedure: MDA-MB-231 cells (5×10^4) or 4T1 Cells (1×10^5) suspended in 100 μL starvation medium were added to the upper chamber of an insert (6.5 mm diameter, 8 μm pore size; Becton Dickson), and the insert was placed in a 24-well plate containing 700 μL starvation medium with or without 10% FBS. When used, inhibitors were added to the lower chamber. Migration assays were performed for 6 h and cells were fixed with 3.7% formaldehyde. Cells were stained with crystal violet staining solution, and cells on the upper side of the insert were removed with a cotton swab. Three randomly selected fields (×10 objectives) on the lower side of the insert were photographed, and the migrated cells were counted. Migration was expressed as average number of migrated cells in a field.

LLC lung tumor cells = experiment: Boyden-chamber cell migration assay, LLC; type: cell-based
Procedure: as §3, §4

fascin = fascin (Homo sapiens (Human), UniProt Q16658); experiment: High throughput fascin inhibition assay (actin bundling, F-actin imaging); type: biochemical
Procedure: A high throughput assay was developed to screen for fascin specific inhibitors. Purified polymerized F-actin with or without fascin were mixed and incubated to allow actin bundle formation. F-actin polymers were then bound to the poly-D-lysine coated plates. […] Four images were taken from each well and the average fiber length was analyzed for each tested compound.
Recombinant human fascin 1 was expressed as a GST fusion protein in BL21 Escherichia coli. One liter of 2YT medium with ampicillin was inoculated overnight with 3 mL of BL21/DE3 culture transformed with pGEX4T-fascin 1 plasmid and grown at 37° C. until attenuance at 600 nm (D600) reached about 0.8. The culture was then transferred to 18° C. and induced by the addition of 0.1 mM isopropyl β-d-thiogalactoside (IPTG) for 12 h. Bacteria were harvested by centrifugation at 5,000 r.p.m. for 10 min. The pellets were suspended in 30 mL of PBS supplemented with 0.2 mM PMSF, 1 mM DTT, 1% (v/v) Triton X-100 and 1 mM EDTA. After sonication, the suspension was centrifuged at 15,000 r.p.m. for 30 min to remove the cell debris. The supernatant was then incubated for 2 h with 4 mL of glutathione beads (Sigma) at 4° C. After extensive washing with PBS, the beads were resuspended in 10 mL of thrombin cleavage buffer (20 mM Tris-HCl pH 8.0, 150 mM NaCl, 2 mM CaCl2, 1 mM DTT). Fascin was released from the beads by incubation overnight with 40-100 U of thrombin at 4° C. After centrifugation, 0.2 mM PMSF was added to the supernatant to inactivate the remnant thrombin activity. The fascin protein was further concentrated with a Centricon® (Boca Raton, Fla.) filter to about 50 mg/mL.
About 150,000 compounds were screened. […] Purified fascin protein (15 μL of 0.5 μM) in buffer (100 mM KCl, 20 mM Tris/HCl, pH 7.5, 2 mM MgCl2) was added into each well of a clear 384-well flat-bottom plate (Corning) using Thermo Multidrop Combi (Fisher). Compound ([…]) solutions (5 mM stock) from various chemical libraries were pin transferred from stock 384-well plates into the 384-well assay plates and incubated for 30 min. Then 15 μL of 0.5 μM polymerized actin (in 100 mM KCl, 20 mM Tris/HCl, pH 7.5, 2 mM MgCl2, 1 mM DTT, 1 mM ATP) (Cytoskeleton Inc.) was added, resulting in 30 μM final concentration for chemical compounds. […] Mixed solution (25 μL) was then transferred to one well in a black 384-well plate coated with poly-D-lysine, and stained actin bundles or F-actin would stick onto the poly-D-lysine plates. After the plates were thoroughly washed with 1×PBS for 3 times, the plate was imaged using an ImageXpress Micro High Content Screening System (Molecular devices). The images were processed and analyzed using MetaMorph software. The raw image data for each well was background-corrected by subtraction of the median intensities across all wells on the plate. The background-corrected data was used to compute the bundle length for each well. The negative control wells were employed for quality control: multiple DMSO-only control wells (16 wells/plate) were present on each assay plate.

[4] = tested on: MDA-MB-231 breast tumor cells; experiment: Boyden-chamber cell migration assay, MDA-MB-231; type: cell-based; details: Homo sapiens
Procedure: as §1, §2

[5] = tested on: DU145 prostate tumor cells; experiment: Boyden-chamber cell migration assay, DU145; type: cell-based; details: Homo sapiens, DU-145
Procedure: as §3, §4

[6] = Actin + Fascin + compound at 30 μM

Structure (SMILES)	IC50 (4T1 breast tumor cells [1])	tumor metastasis from mammary gland to lung (4T1 breast tumor cells [2]; 8 mg/kg daily for 2 weeks)	IC50 [3]	IC50 (LLC lung tumor cells)	IC50 (fascin)	fiber growth (fascin; 30 μM)	Average fiber length (fascin; [6])	Average fiber thickness (fascin; [6])	IC50 [4]	IC50 [5]	tumor metastasis from mammary gland to lung (4T1 breast tumor cells [2]; 30 mg/kg daily for 2 weeks)
O=[N+]([O-])c1ccc(Cl)c(S(=O)(=O)Nc2nc3ccc(Cl)cc3s2)c1 [Compound 3, 2-chloro-N-(6-chlorobenzo[d]thiazol-2-yl)-5-nitrobenzenesulfonamide]	20 µM	decreased the tumor metastasis	25 µM	25 µM	652 nM	inhibited fiber growth	0.39 arbitrary unit	0.35 arbitrary unit	25 µM	25 µM	
C/N=c1/nc(-c2ccccc2)n(-c2ccccc2)s1 [Compound 4, (Z)-N-(2,3-diphenyl-1,2,4-thiadiazol-5(2H)-ylidene)methanamine]	50 µM				500 nM				30 µM		
COc1ccc(S(=O)(=O)Nc2cc(Sc3nc[nH]n3)c(O)c3ccccc23)cc1 [Compound 10, N-(3-(1H-1,2,4-triazol-3-ylthio)-4-hydroxynaphthalen-1-yl)-4-methoxybenzenesulfonamide]					807 nM						decreased the tumor metastasis

Source: patent US10208043B2, “Methods for inhibiting fascin” (Novita Pharmaceuticals, Inc., priority 2012, dated 2019)
